Measured values published in patent US8841321B2, “Quinoline derivatives as antibacterial agents” (Janssen Pharmaceutica NV, priority 2005, dated 2014).
≈ marks a conversion by molar mass, not a printed value.

Tests used:
[1] = tested on: SPN 6305 (Streptococcus pneumoniae (ATCC6305)); test: Microtitre plate assay, IC90 determination; type: cell-based; conditions: for IC90 (μg/ml) SPN 6305: Streptococcus pneumoniae (ATCC6305); for IC90: Streptococcus pneumoniae, ATCC6305, Streptococcus pneumoniae (ATCC6305), read-out: IC90 (μg/ml) SPN 6305
Outline: (§1)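 Growth-inhibition endpoint: resazurin added 3 h after inoculation, plates incubated overnight, fluorescence at 530/590 nm after 24 h at 37 °C. Inocula of roughly 10–60 CFU per well in Mueller-Hinton medium; compounds titrated five-fold. IC90 reported as μg/ml.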

[2] = tested on: STA 29213 (Staphylococcus aureus (ATCC29213)); test: Microtitre plate assay, IC90 determination; type: cell-based; conditions: for IC90 (μg/ml) STA 29213: Staphylococcus aureus (ATCC29213)
Outline: as §1

[3] = tested on: BSU 43639 (Bacillus subtilis (ATCC43639)); test: Microtitre plate assay, IC90 determination; type: cell-based; conditions: Bacillus subtilis (ATCC43639)
[4] = tested on: EFA 29212 (Enterococcus faecalis (ATCC29212)); test: Microtitre plate assay, IC90 determination; type: cell-based; conditions: for IC90 (μg/ml) EFA 29212: Enterococcus faecalis (ATCC29212); for IC90: Enterococcus faecalis, ATCC29212, Enterococcus faecalis (ATCC29212), read-out: IC90 (μg/ml) EFA 29212
[5] = tested on: LMO 49594 (Listeria monocytogenes (ATCC49594)); test: Microtitre plate assay, IC90 determination; type: cell-based; conditions: Listeria monocytogenes (ATCC49594)
[6] = tested on: PAE 27853 (Pseudomonas aeruginosa (ATCC27853)); test: Microtitre plate assay, IC90 determination; type: cell-based; conditions: for IC90 (μg/ml) PAE 27853: Pseudomonas aeruginosa (ATCC27853); for IC90: Pseudomonas aeruginosa, ATCC27853, Pseudomonas aeruginosa (ATCC27853), read-out: IC90 (μg/ml) PAE 27853
[7] = tested on: SPY 8668 (Streptococcus pyogens (ATCC8668)); test: Microtitre plate assay, IC90 determination; type: cell-based; conditions: for IC90: Streptococcus, ATCC8668, Streptococcus pyogens (ATCC8668), read-out: IC90 (μg/ml) SPY 8668; for IC90 (μg/ml) SPY 8668: Streptococcus pyogens (ATCC8668)
[8] = tested on: STA RMETH (methicilline resistant Staphylococcus aureus (MRSA), a clinical isolate from the University of Antwerp); test: Microtitre plate assay, IC90 determination; type: cell-based; conditions: for IC90: Staphylococcus aureus, MRSA, read-out: IC90 (μg/ml) STA RMETH
[9] = tested on: STA 25923 (Staphylococcus aureus (ATCC25923)); test: Microtitre plate assay, IC90 determination; type: cell-based; conditions: Staphylococcus aureus (ATCC25923)
Staphylococcus aureus = test: Time kill assay (broth microdilution method); type: cell-based; conditions: S. aureus; for bactericidal activity in time kill assay: observed at 1 and 10 times MIC90
Source text: (§2) Bactericidal or bacteriostatic activity of the compounds may be determined in a time kill assay using the broth microdilution method*. In a time kill assay on Staphylococcus aureus and methicillin resistant S. aureus (MRSA), the starting inoculum of S. aurues and MRSA is 10^6 CPU/ml in Muller Hinton broth. The antibacterial compounds are used at the concentration of 0.1 to 10 times the MIC (i.e. IC90 as determined in microtitre plate assay). Wells receiving no antibacterial agent constitute the culture growth control. The plates containing the microorganism and the test compounds are incubated at 37° C. After 0, 4, 24, and 48 hrs of incubation samples are removed for determination of viable counts by serial dilution (10^−1 to 10^−6) in sterile PBS and plating (200 μl) on Mueller Hinton agar. The plates are incubated at 37° C. for 24 hours and the number of colonies are determined. Killing curves can be constructed by plotting the log10CFU per ml versus time. A bactericidal effect is commonly defined as 3-log10 decrease in number of CFU per ml as compared to untreated inoculum. The potential carryover effect of the drugs is removed by serial dilutions and counting the colonies at highest dilution used for plating. No carryover effect is observed at the dilution of 10^−2 used for plating. […] Antimicrob. Agents Chemother. 40, 839-845 (1996).

[10] = tested on: methicillin resistant S. aureus (MRSA); test: Time kill assay (broth microdilution method); type: cell-based, Staphylococcus aureus
Source text: as §2

SMILES	IC90 (μg/ml) SPN 6305 [1] [µg/mL]	IC90 (μg/ml) STA 29213 [2] [µg/mL]	melting point [°C]	IC90 (μg/ml) BSU 43639 [3] [µg/mL]	IC90 (μg/ml) EFA 29212 [4] [µg/mL]	IC90 (μg/ml) LMO 49594 [5] [µg/mL]	IC90 (μg/ml) PAE 27853 [6] [µg/mL]	IC90 [7] [µg/mL]	IC90 (μg/ml) STA RMETH [8] [µg/mL]	IC90 [1] [µg/mL]	IC90 [4] [µg/mL]	IC90 [6] [µg/mL]	IC90 [8] [µg/mL]	IC90 (μg/ml) SPY 8668 [7] [µg/mL]	IC90 (μg/ml) STA 25923 [9] [µg/mL]	IC90 ([2]; Staphylococcus aureus, ATCC29213, Staphylococcus aureus (ATCC29213), read-out: IC90 (μg/ml) STA 29213) [µg/mL]	MIC (1×MIC; MIC i.e. IC90 as determined in microtitre plate assay) (Staphylococcus aureus) [µg/mL]	growth of treated samples in time kill assay (Staphylococcus aureus; at 0.1 times the MIC)	bactericidal activity in time kill assay (Staphylococcus aureus)	bactericidal activity in time kill assay [10]
COc1ccc2cc(C(O)(CCCCN(C)C)C(c3ccccc3)c3cc4cc(Br)ccc4nc3OC)ccc2c1 (single isomer, unassigned) [Compound 5]	2.4 (≈ 3.91 µM)	1.9 (≈ 3.1 µM)	96	1.9 (≈ 3.1 µM)	1.9 (≈ 3.1 µM)	1.9 (≈ 3.1 µM)	1.9 (≈ 3.1 µM)	1.5 (≈ 2.44 µM)	1.9 (≈ 3.1 µM)											
COc1nc2ccc(Br)cc2cc1C(c1ccccc1)C(O)(CCCCN(C)C)c1cc(F)cc(F)c1 (stereo not drawn) [Compound 11]		1.8 (≈ 3.16 µM)	157					9 (≈ 15.8 µM)		9 (≈ 15.8 µM)	9 (≈ 15.8 µM)	9 (≈ 15.8 µM)	11.4 (≈ 20 µM)							
COc1nc2ccc(Br)cc2cc1C(c1ccccc1)C(O)(CCCCN(C)C)c1ccc2ccccc2c1 (stereo not drawn) [Compound 17]	11.6 (≈ 19.9 µM)	9.3 (≈ 15.9 µM)	170	5.2 (≈ 8.91 µM)	5.2 (≈ 8.91 µM)	5.8 (≈ 9.94 µM)	2.3 (≈ 3.94 µM)		10.4 (≈ 17.8 µM)					4.6 (≈ 7.88 µM)	2.3 (≈ 3.94 µM)					
COc1nc2ccc(Br)cc2cc1C(c1ccccc1)C(O)(CCCCN(C)C)c1ccc2ccccc2c1 (stereo not drawn) [Compound 18]	2.9 (≈ 4.97 µM)	46.4 (≈ 79.5 µM)			46.4 (≈ 79.5 µM)		23.2 (≈ 39.8 µM)							11.6 (≈ 19.9 µM)			12 (≈ 20.6 µM)	followed the control in growth	bactericidal activity	marked bactericidal activity
COc1nc2ccc(Br)cc2cc1C(c1ccccc1)C(O)(CCCCN(C)C)c1ccc2ccccc2c1 (stereo not drawn) [Compound 22]	58.4 (≈ 100 µM)	9.3 (≈ 15.9 µM)	166	58.4 (≈ 100 µM)	4.1 (≈ 7.03 µM)	11.6 (≈ 19.9 µM)	4.1 (≈ 7.03 µM)		58.4 (≈ 100 µM)					46.4 (≈ 79.5 µM)	46.4 (≈ 79.5 µM)					
O=C(O)c1cn(C2CC2)c2cc(N3CCNCC3)c(F)cc2c1=O [ciprofloxacin, reference compound]																			bactericidal activity	no bactericidal effect

Continued, in another order:

IC90 (μg/ml) SPN 6305 [1] [µg/mL]	IC90 (μg/ml) STA 29213 [2] [µg/mL]	melting point [°C]	IC90 (μg/ml) BSU 43639 [3] [µg/mL]	IC90 (μg/ml) EFA 29212 [4] [µg/mL]	IC90 (μg/ml) LMO 49594 [5] [µg/mL]	IC90 (μg/ml) PAE 27853 [6] [µg/mL]	IC90 [7] [µg/mL]	IC90 (μg/ml) STA RMETH [8] [µg/mL]	IC90 [1] [µg/mL]	IC90 [4] [µg/mL]	IC90 [6] [µg/mL]	IC90 [8] [µg/mL]	IC90 (μg/ml) SPY 8668 [7] [µg/mL]	IC90 (μg/ml) STA 25923 [9] [µg/mL]	IC90 ([2]; Staphylococcus aureus, ATCC29213, Staphylococcus aureus (ATCC29213), read-out: IC90 (μg/ml) STA 29213) [µg/mL]	SMILES	MIC (1×MIC; MIC i.e. IC90 as determined in microtitre plate assay) (Staphylococcus aureus) [µg/mL]	growth of treated samples in time kill assay (Staphylococcus aureus; at 0.1 times the MIC)	bactericidal activity in time kill assay (Staphylococcus aureus)	bactericidal activity in time kill assay [10]
4.3 (≈ 7.01 µM)	1.9 (≈ 3.1 µM)	164		1.9 (≈ 3.1 µM)		1.9 (≈ 3.1 µM)		10.9 (≈ 17.8 µM)					1.9 (≈ 3.1 µM)			COc1ccc2cc(C(O)(CCCCN(C)C)C(c3ccccc3)c3cc4c(Br)cccc4nc3OC)ccc2c1 (stereo not drawn) [Compound 26]				
1.9 (≈ 3.55 µM)	3.8 (≈ 7.11 µM)	179		8.5 (≈ 15.9 µM)		2.7 (≈ 5.05 µM)		10.7 (≈ 20 µM)					8.5 (≈ 15.9 µM)			COc1ccc2cc(C(O)(CCCCN(C)C)C(c3ccccc3)c3cc4ccccc4nc3OC)ccc2c1 (stereo not drawn) [Compound 34]				
11.4 (≈ 20 µM)	4.5 (≈ 7.88 µM)	182					9.1 (≈ 15.9 µM)	2.3 (≈ 4.03 µM)		7.2 (≈ 12.6 µM)	9.1 (≈ 15.9 µM)					COc1nc2ccc(-c3ccco3)cc2cc1C(c1ccccc1)C(O)(CCCCN(C)C)c1ccc2ccccc2c1 (stereo not drawn) [Compound 38]				
		121					1.64 (≈ 3.16 µM)		0.41 (≈ 0.789 µM)	1.64 (≈ 3.16 µM)	8.23 (≈ 15.8 µM)	9.2 (≈ 17.7 µM)			1.64 (≈ 3.16 µM)	CNCCCCC(O)(c1ccccc1)C(c1ccccc1)c1cc2cc(Br)ccc2nc1OC (stereo not drawn) [Compound 53]				
1.9 (≈ 3.63 µM)	8.3 (≈ 15.9 µM)	188		18.6 (≈ 35.5 µM)		8.3 (≈ 15.9 µM)							1.7 (≈ 3.25 µM)			CNCCCC(O)(c1ccc(F)cc1)C(c1ccccc1)c1cc2cc(Br)ccc2nc1OC (stereo not drawn) [Compound 68]				
